Inconclusive results and toxic doses are left out. No stated cut-off is given here; in the data, active means T/C of 150% or more; inactive means T/C below 125%.
Test system: L1210 leukemia ip in BDF1 mice, survival T/C
Experiment: NCI In Vivo Anticancer Drug Screen. Data for tumor model L1210 Leukemia (intraperitoneal) in B6D2F1 (BDF1) mice
Settings: endpoint: mean survival time, higher = longer survival
Summary of the method: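 Each compound was tested against a transplantable tumor grown in mice. The endpoint was survival, with treated animals benchmarked against vehicle controls as a simple ratio.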

[1] = dose: 50.0 mg/kg/injection, schedule: Q01DX009 (ip), vehicle: saline
[2] = dose: 100.0 mg/kg/injection, schedule: Q01DX009 (ip), vehicle: saline
[3] = dose: 200.0 mg/kg/injection, schedule: Q01DX009 (ip), vehicle: saline
[4] = dose: 12.5 mg/kg/injection, schedule: Q04DX002 (ip), vehicle: Klucel (hydroxypropylcellulose) (HPC)
[5] = dose: 25.0 mg/kg/injection, schedule: Q04DX002 (ip), vehicle: Klucel (hydroxypropylcellulose) (HPC)
[6] = dose: 50.0 mg/kg/injection, schedule: Q04DX002 (ip), vehicle: Klucel (hydroxypropylcellulose) (HPC)
[7] = dose: 100.0 mg/kg/injection, schedule: Q04DX002 (ip), vehicle: Klucel (hydroxypropylcellulose) (HPC)
[8] = dose: 100.0 mg/kg/injection, schedule: Q01DX001 (ip), vehicle: carboxymethylcellulose (CMC)
[9] = dose: 200.0 mg/kg/injection, schedule: Q01DX001 (ip), vehicle: carboxymethylcellulose (CMC)
[10] = dose: 100.0 mg/kg/injection, schedule: Q01DX009 (ip), vehicle: Klucel (hydroxypropylcellulose) (HPC)
[11] = dose: 200.0 mg/kg/injection, schedule: Q01DX009 (ip), vehicle: Klucel (hydroxypropylcellulose) (HPC)
[12] = dose: 400.0 mg/kg/injection, schedule: Q01DX009 (ip), vehicle: Klucel (hydroxypropylcellulose) (HPC)
[13] = dose: 100.0 mg/kg/injection, schedule: Q01DX001 (ip), vehicle: saline with Tween-80
[14] = dose: 100.0 mg/kg/injection, schedule: Q04DX003 (ip), vehicle: saline with Tween-80
[15] = dose: 200.0 mg/kg/injection, schedule: Q04DX003 (ip), vehicle: saline with Tween-80
[16] = dose: 100.0 mg/kg/injection, schedule: Q04DX003 (ip), vehicle: Klucel (hydroxypropylcellulose) (HPC)
[17] = dose: 200.0 mg/kg/injection, schedule: Q04DX003 (ip), vehicle: Klucel (hydroxypropylcellulose) (HPC)
[18] = dose: 400.0 mg/kg/injection, schedule: Q04DX003 (ip), vehicle: Klucel (hydroxypropylcellulose) (HPC)
[19] = dose: 100.0 mg/kg/injection, schedule: Q01DX009 (ip), vehicle: saline with Tween-80
[20] = dose: 200.0 mg/kg/injection, schedule: Q01DX009 (ip), vehicle: saline with Tween-80
[21] = dose: 400.0 mg/kg/injection, schedule: Q01DX009 (ip), vehicle: saline with Tween-80
[22] = dose: 400.0 mg/kg/injection, schedule: Q04DX003 (ip), vehicle: saline with Tween-80
[23] = dose: 400.0 mg/kg/injection, schedule: Q01DX009 (ip), vehicle: saline

Measured: T/C

CC(=O)NCC[CH2][Sn]([c]1ccccc1)([c]1ccccc1)[c]1ccccc1
inactive: [1] 100 % of control | [2] 100 % of control | [3] 110 % of control

C/C(CCc1c[nH]c2ccccc12)=N\O
inactive: dose: 100.0 mg/kg/injection, schedule: Q04DX003 (sc), vehicle: olive oil, sesame oil, peanut oil 98 % of control | dose: 200.0 mg/kg/injection, schedule: Q04DX003 (sc), vehicle: olive oil, sesame oil, peanut oil 98 % of control | dose: 400.0 mg/kg/injection, schedule: Q04DX003 (sc), vehicle: olive oil, sesame oil, peanut oil 104 % of control

Cc1cc(C(=O)/C=C(\C(=O)c2ccccc2)c2ccccc2)ccc1Cl
inactive: [4] 98 % of control | [5] 119 % of control | [6] 94 % of control | [7] 86 % of control

Cc1ccc2c(c1)CN(C13CC4CC(CC(C4)C1)C3)CO2
inactive: dose: 100.0 mg/kg/injection, schedule: Q04DX003 (ip), vehicle: saline sonified 91 % of control | dose: 200.0 mg/kg/injection, schedule: Q04DX003 (ip), vehicle: saline sonified 102 % of control | dose: 400.0 mg/kg/injection, schedule: Q04DX003 (ip), vehicle: saline sonified 93 % of control

CN(C)c1ccc(C=Nc2cccc(O)c2)cc1
inactive: [8] 102 % of control | [9] 88 % of control | dose: 400.0 mg/kg/injection, schedule: Q01DX001 (ip), vehicle: carboxymethylcellulose (CMC) 94 % of control

CC12CCCC([N+](=O)[O-])(C1)NC(=O)C2C#N (configuration not stated)
inactive: dose: 100.0 mg/kg/injection, schedule: Q01DX001 (ip), vehicle: saline 105 % of control | dose: 200.0 mg/kg/injection, schedule: Q01DX001 (ip), vehicle: saline 106 % of control | dose: 400.0 mg/kg/injection, schedule: Q01DX001 (ip), vehicle: saline 101 % of control

c1ccc(N=NNc2ccccc2)cc1
inactive: dose: 6.25 mg/kg/injection, schedule: Q01DX009 (ip), vehicle: saline with Tween-80 100 % of control | dose: 12.5 mg/kg/injection, schedule: Q01DX009 (ip), vehicle: saline with Tween-80 94 % of control | dose: 25.0 mg/kg/injection, schedule: Q01DX009 (ip), vehicle: saline with Tween-80 98 % of control

O=C(Nc1cccc(O)c1)Nc1ccc(Cl)cc1[N+](=O)[O-]
inactive: [10] 102 % of control | [11] 101 % of control

Cc1nnc2c3ccccc3c(-c3ccccc3)nn12
inactive: [8] 104 % of control | [9] 106 % of control

COC(=O)c1ccccc1NC(=O)Nc1cccc(F)c1
inactive: [10] 95 % of control | [11] 101 % of control | [12] 113 % of control

NC(=O)/C=C\C(N)=O
inactive: [1] 103 % of control | dose: 50.0 mg/kg/injection, schedule: Q04DX003 (ip), vehicle: saline 100 % of control | [2] 99 % of control | dose: 100.0 mg/kg/injection, schedule: Q04DX003 (ip), vehicle: saline 104 % of control | dose: 200.0 mg/kg/injection, schedule: Q04DX003 (ip), vehicle: saline 99 % of control

O=C1OC(=O)C2C=CC=CC12 (configuration not stated)
inactive: dose: 100.0 mg/kg/injection, schedule: Q04DX002 (ip), vehicle: saline with Tween-80 92 % of control | dose: 200.0 mg/kg/injection, schedule: Q04DX002 (ip), vehicle: saline with Tween-80 103 % of control | dose: 400.0 mg/kg/injection, schedule: Q04DX002 (ip), vehicle: saline with Tween-80 95 % of control

CSc1ccccc1N=Cc1cc(Cl)ccc1O
inactive: [13] 90 % of control

N=c1sc2ccccc2n1CC(=O)O
inactive: dose: 25.0 mg/kg/injection, schedule: Q01DX001 (ip), vehicle: saline with Tween-80 92 % of control | dose: 50.0 mg/kg/injection, schedule: Q01DX001 (ip), vehicle: saline with Tween-80 96 % of control | [13] 94 % of control

CCOC(=O)c1c(-c2ccccc2)csc1N
inactive: dose: 50.0 mg/kg/injection, schedule: Q04DX003 (ip), vehicle: saline with Tween-80 97 % of control | [14] 94 % of control | [15] 90 % of control

CCCCC(=O)N1C(=O)/C(=C\N(C)C)c2cc(C=O)ccc21
inactive: dose: 100.0 mg/kg/injection, schedule: Q01DX001 (ip), vehicle: Klucel (hydroxypropylcellulose) (HPC) 90 % of control | dose: 200.0 mg/kg/injection, schedule: Q01DX001 (ip), vehicle: Klucel (hydroxypropylcellulose) (HPC) 90 % of control | dose: 400.0 mg/kg/injection, schedule: Q01DX001 (ip), vehicle: Klucel (hydroxypropylcellulose) (HPC) 93 % of control

CCN(CC)CCO[C@H]1CC[C@@]2(C)C(=CC[C@@H]3[C@@H]2CC[C@]2(C)C(=O)CC[C@@H]32)C1
inactive: dose: 50.0 mg/kg/injection, schedule: Q01DX001 (sc), vehicle: steriod suspending solution 101 % of control | dose: 100.0 mg/kg/injection, schedule: Q01DX001 (sc), vehicle: steriod suspending solution 90 % of control

O=CNC(c1ccccc1)(c1ccccc1)c1ccccc1
inactive: [10] 99 % of control | [16] 102 % of control | [11] 91 % of control | [17] 94 % of control | [12] 91 % of control | [18] 102 % of control

Cc1ccc(NS(=O)(=O)c2ccc3ccccc3c2)c(C)c1
inactive: [19] 106 % of control | [14] 89 % of control | [20] 112 % of control | [15] 102 % of control | [21] 107 % of control | [22] 89 % of control

O=c1nc(-c2ccccc2)c(-c2ccccc2)n[nH]1
inactive: dose: 50.0 mg/kg/injection, schedule: Q01DX009 (ip), vehicle: saline with Tween-80 91 % of control | [19] 98 % of control | [16] 107 % of control | [20] 98 % of control | [17] 100 % of control | [18] 102 % of control

COC(=O)C1C2OC(C3OC32)C1C(=O)OC (configuration not stated)
inactive: [2] 103 % of control | [3] 104 % of control | [23] 95 % of control

O=C(O)CCC(NC(=O)OCc1ccccc1)C(=O)OCc1ccccc1 (configuration not stated)
inactive: dose: 50.0 mg/kg/injection, schedule: Q01DX009 (ip), vehicle: Klucel (hydroxypropylcellulose) (HPC) 101 % of control | [10] 103 % of control | [16] 101 % of control | [11] 90 % of control | [17] 105 % of control

CC(=O)N(N=Nc1ccccc1)c1cccc2ccccc12
inactive: [10] 116 % of control | [16] 108 % of control | [11] 96 % of control | [17] 109 % of control | [18] 108 % of control

CC(=O)OCC(C)(C)N
inactive: dose: 100.0 mg/kg/injection, schedule: Q04DX002 (ip), vehicle: saline 89 % of control | dose: 200.0 mg/kg/injection, schedule: Q04DX002 (ip), vehicle: saline 110 % of control | dose: 400.0 mg/kg/injection, schedule: Q04DX002 (ip), vehicle: saline 95 % of control

CCC(C)NNC(C)CC (configuration not stated)
inactive: dose: 75.0 mg/kg/injection, schedule: Q01DX001 (ip), vehicle: other 98 % of control | dose: 150.0 mg/kg/injection, schedule: Q01DX001 (ip), vehicle: other 112 % of control | dose: 300.0 mg/kg/injection, schedule: Q01DX001 (ip), vehicle: other 103 % of control

COc1ccc(OC)c(NC(=O)Nc2ccc(CCO)cc2)c1
inactive: [2] 99 % of control | [3] 102 % of control | [23] 103 % of control

BrC1(Br)C2CC3C(CC21)C1CC2C(CC31)C2(Br)Br (configuration not stated)
inactive: [19] 97 % of control | [14] 94 % of control | [20] 96 % of control | [15] 95 % of control | [21] 105 % of control | [22] 92 % of control

CC(=O)C(C(C)=O)C1C=CCC1 (configuration not stated)
inactive: [14] 96 % of control | [15] 107 % of control | [22] 89 % of control

Nc1ccc(Sc2ccc(N)cc2)cc1
inactive: [4] 106 % of control | [5] 116 % of control | [6] 106 % of control | [7] 103 % of control

From PubChem BioAssay AID248 (DTP/NCI, 2004)
